Data taken from patent US20110130380A1, “Heteroaryl Kinase Inhibitors” (priority 2009, published 2011).

Each compound was assayed against Cdk9/cyclinT1 (Homo sapiens, UniProt P50750) (assay: Cdk9/cyclinT1 IMAP Protocol (fluorescence polarization kinase assay)). Conditions: Cdk9_cyclinT1_IC50, Table V; generated using one of the two Cdk9/cyclinT1 assays (IMAP or Alpha Screen), not stated which; ATP 6 uM.
Chain of Cdk9/cyclinT1 (P50750 whole entry): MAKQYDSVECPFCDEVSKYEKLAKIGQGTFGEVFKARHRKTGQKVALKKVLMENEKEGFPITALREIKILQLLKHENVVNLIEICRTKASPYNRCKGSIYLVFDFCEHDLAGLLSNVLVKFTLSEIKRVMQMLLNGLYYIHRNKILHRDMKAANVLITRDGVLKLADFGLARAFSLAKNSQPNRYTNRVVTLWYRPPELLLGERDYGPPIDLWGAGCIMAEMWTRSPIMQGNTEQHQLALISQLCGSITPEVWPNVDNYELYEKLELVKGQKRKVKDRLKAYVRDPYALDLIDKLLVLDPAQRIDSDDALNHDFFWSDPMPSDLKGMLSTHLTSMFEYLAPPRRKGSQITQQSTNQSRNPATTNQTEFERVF
Chain of Cdk9/cyclinT1 (O60563 whole entry partner): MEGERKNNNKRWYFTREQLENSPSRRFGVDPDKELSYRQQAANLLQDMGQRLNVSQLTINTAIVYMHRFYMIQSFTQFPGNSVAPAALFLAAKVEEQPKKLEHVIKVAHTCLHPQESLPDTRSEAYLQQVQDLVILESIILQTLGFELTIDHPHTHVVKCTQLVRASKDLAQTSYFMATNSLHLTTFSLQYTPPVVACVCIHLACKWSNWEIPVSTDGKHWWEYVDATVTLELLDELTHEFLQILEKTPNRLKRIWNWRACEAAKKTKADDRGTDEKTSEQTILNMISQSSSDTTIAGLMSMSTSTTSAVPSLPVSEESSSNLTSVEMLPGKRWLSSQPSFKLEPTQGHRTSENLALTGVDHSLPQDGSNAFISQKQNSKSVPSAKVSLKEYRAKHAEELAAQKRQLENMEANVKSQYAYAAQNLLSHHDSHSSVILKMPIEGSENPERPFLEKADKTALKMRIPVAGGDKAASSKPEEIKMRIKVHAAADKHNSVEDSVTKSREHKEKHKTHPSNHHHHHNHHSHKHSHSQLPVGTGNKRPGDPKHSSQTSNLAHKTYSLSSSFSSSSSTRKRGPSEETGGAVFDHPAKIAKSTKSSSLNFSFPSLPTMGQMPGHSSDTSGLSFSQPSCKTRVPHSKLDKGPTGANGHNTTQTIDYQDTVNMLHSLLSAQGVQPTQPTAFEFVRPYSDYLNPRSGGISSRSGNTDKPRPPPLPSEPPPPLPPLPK

SMILES | IC50
O=C(Nc1cc(-c2cccc(NCC3CCOCC3)n2)c(Cl)cn1)C1CCNCC1 [Example 7, Piperidine-4-carboxylic acid {5′-chloro-6-[(tetrahydro-pyran-4-ylmethyl)-amino]-[2,4′]bipyridinyl-2′-yl}-amide] | 14 nM
O=C(Nc1cc(-c2cccc(NCC3CCOCC3)n2)c(Cl)cn1)[C@@H]1CCCO1 [Example 67, (S)-Tetrahydro-furan-2-carboxylic acid {5′-chloro-6-[(tetrahydro-pyran-4-ylmethyl)-amino]-[2,4′]bipyridinyl-2′-yl}-amide] | 396 nM
CCN1CCC[C@@H](C(=O)Nc2cc(-c3cccc(NCC4CCOCC4)n3)c(Cl)cn2)C1 (single isomer, unassigned) [Example 56] | 81 nM
O=C(Nc1cc(-c2cccc(NCC3CCOCC3)n2)ccn1)[C@@H]1CCCNC1 [Example 15, (R)-Piperidine-3-carboxylic acid {6-[(tetrahydro-pyran-4-ylmethyl)-amino]-[2,4′]bipyridinyl-2′-yl}-amide] | < 8 nM
C[C@@H]1CC[C@@H](C(=O)Nc2cc(-c3cccc(NCC4CCOCC4)n3)c(Cl)cn2)CN1 (racemic) [Example 127, (3R,6R)-/(3S,6S)-6-methyl-piperidine-3-carboxylic acid {5′-chloro-6-[(tetrahydro-pyran-4-ylmethyl)-amino]-[2,4′]bipyridinyl-2′-yl}-amide] | 9 nM
COC(=O)N1CCC[C@H](C(=O)Nc2cc(-c3nc(N[C@@H](C)C4CCOCC4)ccc3Cl)c(Cl)cn2)C1 [Example 154, (S)-3-{3,5′-Dichloro-6-[(S)-1-(tetrahydro-pyran-4-yl)-ethylamino]-[2,4′]bipyridinyl-2′-ylcarbamoyl}-piperidine-1-carboxylic acid methyl ester] | 15 nM
CN(C)c1cccc(-c2cc(NC(=O)[C@@H]3CCCNC3)ncc2Cl)n1 [Example 36, (R)-Piperidine-3-carboxylic acid (5′-chloro-6-dimethylamino-[2,4′]bipyridinyl-2′-yl)-amide] | 102 nM
O=C(Nc1cc(-c2cccc(NCC3CCOCC3)n2)c(Cl)cn1)[C@H]1CCCNC1 [Example 8, (S)-Piperidine-3-carboxylic acid {5′-chloro-6-[(tetrahydro-pyran-4-ylmethyl)-amino]-[2,4′]bipyridinyl-2′-yl}-amide] | 46 nM
CS(=O)(=O)N1CCC[C@H](C(=O)Nc2cc(-c3cccc(NCC4CCCOC4)n3)c(Cl)cn2)C1 (stereo partly drawn) [Example 81, (S)-1-Methanesulfonyl-piperidine-3-carboxylic acid {5′-chloro-6-[(tetrahydro-pyran-3-ylmethyl)-amino]-[2,4′]bipyridinyl-2′-yl}-amide] | < 8 nM
O=C(Nc1cc(-c2cccc(NCC3CCS(=O)(=O)CC3)n2)c(Cl)cn1)[C@@H]1CCCNC1 [Example 12, (R)-piperidine-3-carboxylic acid {5′-chloro-6-[(1′,1′-dioxo-hexahydro-1-thiopyran-4-ylmethyl)-amino]-[2,4′]bipyridinyl-2′-yl}-amide] | < 8 nM
CCN1CCCC(C(=O)Nc2cc(-c3cccc(NCC4CCOCC4)n3)c(Cl)cn2)C1 (single isomer, unassigned) [Example 14] | 811 nM
CC1(C)C[C@@H](CNc2cccc(-c3cc(NC(=O)[C@H]4CNCCO4)ncc3Cl)n2)CCO1 (single isomer, unassigned) [Example 131] | 38 nM
COC[C@@H]1CC[C@H](C(=O)Nc2cc(-c3cccc(NCC4CCOCC4)n3)c(Cl)cn2)CN1 (racemic) [Example 220, (3S,6S)-/(3R,6R)-6-Methoxymethyl-piperidine-3-carboxylic acid {5′-chloro-6-[(tetrahydro-pyran-4-ylmethyl)-amino]-[2,4′]bipyridinyl-2′-yl}-amide] | 14 nM

Further lines, results first:

IC50 | SMILES
1 nM | O=C(Nc1cc(-c2nc(NCC3CCOCC3)ccc2Cl)c(Cl)cn1)C1CCCCNC1 (stereo not shown) [Example 194, Azepane-3-carboxylic acid {3,5′-dichloro-6-[(tetrahydro-pyran-4-ylmethyl)-amino]-[2,4′]bipyridinyl-2′-yl}-amide]
1 nM | CC[C@@H]1CC[C@@H](C(=O)Nc2cc(-c3cccc(NCC4CCOCC4)n3)c(Cl)cn2)CN1 (racemic) [Example 229, (3R,6R)-/(3S,6S)-6-Ethyl-piperidine-3-carboxylic acid {5′-chloro-6-[(tetrahydro-pyran-4-ylmethyl)-amino]-[2,4′]bipyridinyl-2′-yl}-amide]
7 nM | O=C(Nc1cc(-c2cccc(NCC3CCOCC3)n2)c(Cl)cn1)[C@H]1CN[C@@H](CF)C1 [Example 179, (3R,5R)-5-Fluoromethyl-pyrrolidine-3-carboxylic acid {5′-chloro-6-[(tetrahydro-pyran-4-ylmethyl)-amino]-[2,4′]bipyridinyl-2′-yl}-amide]
1 nM | CC1(CNc2cccc(-c3cc(NC(=O)[C@@H]4CCCNC4)ncc3Cl)n2)CCOCC1 [Example 207, (R)-Piperidine-3-carboxylic acid {5′-chloro-6-[(4-methyl-tetrahydro-pyran-4-ylmethyl)-amino]-[2,4′]bipyridinyl-2′-yl}-amide]
1 nM | COC[C@@H]1C[C@@H](C(=O)Nc2cc(-c3nc(NCC4CCOC(C)(C)C4)ccc3Cl)c(Cl)cn2)CN1 (stereo partly drawn) [Example 186, (3R,5S)-5-Methoxymethyl-pyrrolidine-3-carboxylic acid {3,5′-dichloro-6-[(2,2-dimethyl-tetrahydro-pyran-4-ylmethyl)-amino]-[2,4′]bipyridinyl-2′-yl}-amide]
< 8 nM | O=C(Nc1cc(-c2cccc(NC[C@H]3CCCOC3)n2)c(Cl)cn1)[C@@H]1CCCNC1 (single isomer, unassigned) [Example 78]
1 nM | C[C@@H]1CC[C@@H](C(=O)Nc2cc(-c3ccc(F)c(NCC4CCOCC4)n3)c(Cl)cn2)CN1 (single isomer, unassigned) [Example 189]
1 nM | CO[C@H]1CNC[C@@H]1C(=O)Nc1cc(-c2nc(NCC3CCOCC3)c(F)cc2Cl)c(Cl)cn1 [Example 181, (3S,4R)-4-Methoxy-pyrrolidine-3-carboxylic acid {3,5′-dichloro-5-fluoro-6-[(tetrahydro-pyran-4-ylmethyl)-amino]-[2,4′]bipyridinyl-2′-yl}-amide]
3 nM | CC1(C)COC[C@H](CNc2nc(-c3cc(NC(=O)[C@@H]4CCCNC4)ncc3Cl)ccc2F)O1 (single isomer, unassigned) [Example 262]
1 nM | C[C@@H]1CC[C@@H](C(=O)Nc2cc(-c3cccc(NC[C@H]4CCOC(C)(C)C4)n3)c(Cl)cn2)CN1 (mixture of isomers) [Example 227, (3R,6R)-/(3S,6S)-6-Methyl-piperidine-3-carboxylic acid {5′-chloro-6-[((S)-2,2-dimethyl-tetrahydro-pyran-4-ylmethyl)-amino]-[2,4′]bipyridinyl-2′-yl}-amide]
1 nM | O=C(Nc1cc(-c2ccc(F)c(NCC3CCOCC3)n2)c(Cl)cn1)[C@@H]1CCCNC1 [Example 135, (R)-Piperidine-3-carboxylic acid {5′-chloro-5-fluoro-6-[(tetrahydro-pyran-4-ylmethyl)-amino]-[2,4′]bipyridinyl-2′-yl}-amide]
1 nM | CC1(CNc2nc(-c3cc(NC(=O)[C@@H]4CCCNC4)ncc3Cl)ccc2F)CCOCC1 [Example 208, (R)-Piperidine-3-carboxylic acid {5′-chloro-5-fluoro-6-[(4-methyl-tetrahydro-pyran-4-ylmethyl)-amino]-[2,4′]bipyridinyl-2′-yl}-amide]
